Laboratory results taken from ChEMBL document CHEMBL4428125, “8-Substituted 1,3-dimethyltetrahydropyrazino[2,1-f]purinediones: Water-soluble adenosine receptor antagonists and monoamine oxidase B inhibitors” (Bioorg Med Chem, 2016).

Columns and labels:
Adenosine receptor A2a [1] = biological target: Adenosine receptor A2a (Rattus norvegicus, UniProt P30543); assay: Displacement of [3H]MSX from A2A receptor in rat brain striatum membranes measured after 30 mins by liquid scintillation counting method; assay type: cell membranes
Chain of Adenosine receptor A2a (Rattus norvegicus, UniProt P30543) (P30543 whole entry): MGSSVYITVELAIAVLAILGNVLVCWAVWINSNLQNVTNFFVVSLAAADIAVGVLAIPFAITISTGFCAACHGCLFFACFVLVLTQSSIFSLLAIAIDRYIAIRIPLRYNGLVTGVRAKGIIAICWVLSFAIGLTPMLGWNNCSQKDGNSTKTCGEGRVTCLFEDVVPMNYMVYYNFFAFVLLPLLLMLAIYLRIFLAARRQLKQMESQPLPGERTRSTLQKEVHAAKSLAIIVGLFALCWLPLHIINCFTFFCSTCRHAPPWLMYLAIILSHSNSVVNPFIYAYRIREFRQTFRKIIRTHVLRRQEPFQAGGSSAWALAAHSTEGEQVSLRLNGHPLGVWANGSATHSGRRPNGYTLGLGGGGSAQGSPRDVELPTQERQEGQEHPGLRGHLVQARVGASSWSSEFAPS

[2] = biological target: T1, Amine oxidase [flavin-containing] B (Rattus norvegicus, UniProt P19643); assay: Inhibition of recombinant rat MAO-B preincubated for 30 mins followed by addition of p-tyramine as substrate measured over 45 mins by Amplex Red MAO assay
T1 sequence (P19643 whole entry): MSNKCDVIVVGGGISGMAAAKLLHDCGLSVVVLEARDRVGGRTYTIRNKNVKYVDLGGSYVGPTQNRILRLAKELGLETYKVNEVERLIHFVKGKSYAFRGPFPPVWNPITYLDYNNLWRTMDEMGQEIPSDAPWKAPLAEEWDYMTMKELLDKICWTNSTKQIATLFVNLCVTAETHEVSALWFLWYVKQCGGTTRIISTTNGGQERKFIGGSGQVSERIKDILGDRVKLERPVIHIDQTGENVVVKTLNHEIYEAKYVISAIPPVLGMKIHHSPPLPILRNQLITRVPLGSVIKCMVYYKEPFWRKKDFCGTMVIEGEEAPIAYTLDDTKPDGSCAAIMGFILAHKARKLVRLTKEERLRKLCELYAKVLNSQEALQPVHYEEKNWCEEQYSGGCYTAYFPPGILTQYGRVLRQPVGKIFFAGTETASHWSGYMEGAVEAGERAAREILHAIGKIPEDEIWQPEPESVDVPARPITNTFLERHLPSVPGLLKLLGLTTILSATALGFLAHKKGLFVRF

[3] = biological target: T2, Amine oxidase [flavin-containing] A (Homo sapiens, UniProt P21397); assay: Inhibition of recombinant human MAO-A expressed in baculovirus infected BTI insect cells at 10 uM preincubated for 30 mins followed by addition of p-tyramine as substrate measured over 45 mins by Amplex Red MAO assay relative to control; settings: 0.75 h
T2 sequence (P21397 whole entry): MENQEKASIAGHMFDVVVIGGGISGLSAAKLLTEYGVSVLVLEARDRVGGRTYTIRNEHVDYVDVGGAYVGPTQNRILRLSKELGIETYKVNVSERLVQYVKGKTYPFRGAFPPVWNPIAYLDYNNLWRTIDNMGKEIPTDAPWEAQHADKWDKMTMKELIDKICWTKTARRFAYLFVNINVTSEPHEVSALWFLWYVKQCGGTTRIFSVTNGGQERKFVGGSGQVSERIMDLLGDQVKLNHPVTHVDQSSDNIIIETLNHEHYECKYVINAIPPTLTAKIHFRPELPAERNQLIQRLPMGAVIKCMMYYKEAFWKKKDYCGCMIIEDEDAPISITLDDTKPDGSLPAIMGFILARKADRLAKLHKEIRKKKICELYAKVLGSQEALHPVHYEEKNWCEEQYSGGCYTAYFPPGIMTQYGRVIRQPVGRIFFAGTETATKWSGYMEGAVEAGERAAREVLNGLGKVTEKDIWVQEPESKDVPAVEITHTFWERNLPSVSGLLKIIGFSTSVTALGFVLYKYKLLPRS

[4] = biological target: T2, Amine oxidase [flavin-containing] A; assay: Inhibition of recombinant human MAO-A expressed in baculovirus infected BTI insect cells preincubated for 30 mins followed by addition of p-tyramine as substrate measured over 45 mins by Amplex Red MAO assay
Adenosine receptor A2a [5] = biological target: Adenosine receptor A2a (Homo sapiens, UniProt P29274); assay: Displacement of [3H]MSX from human A2A receptor measured after 30 mins by liquid scintillation counting method
Chain of Adenosine receptor A2a (Homo sapiens, UniProt P29274) (P29274 whole entry): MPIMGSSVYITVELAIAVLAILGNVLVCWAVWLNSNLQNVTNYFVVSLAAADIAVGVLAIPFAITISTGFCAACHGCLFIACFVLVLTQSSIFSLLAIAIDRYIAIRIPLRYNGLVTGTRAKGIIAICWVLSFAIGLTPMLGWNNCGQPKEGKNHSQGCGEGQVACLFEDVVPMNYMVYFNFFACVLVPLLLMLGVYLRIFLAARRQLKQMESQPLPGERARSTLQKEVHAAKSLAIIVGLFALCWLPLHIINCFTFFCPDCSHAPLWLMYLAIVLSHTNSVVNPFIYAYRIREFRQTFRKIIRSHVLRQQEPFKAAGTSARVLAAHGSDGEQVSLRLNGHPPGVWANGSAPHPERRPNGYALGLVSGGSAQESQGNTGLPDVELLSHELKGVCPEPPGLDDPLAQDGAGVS

Adenosine receptor A1 = biological target: T3, Adenosine receptor A1 (Homo sapiens, UniProt P30542); assay: Displacement of [3H]CCPA from human A1 receptor expressed in CHO cell membrane by liquid scintillation counting method; assay type: cell membranes
T3 sequence (P30542 whole entry): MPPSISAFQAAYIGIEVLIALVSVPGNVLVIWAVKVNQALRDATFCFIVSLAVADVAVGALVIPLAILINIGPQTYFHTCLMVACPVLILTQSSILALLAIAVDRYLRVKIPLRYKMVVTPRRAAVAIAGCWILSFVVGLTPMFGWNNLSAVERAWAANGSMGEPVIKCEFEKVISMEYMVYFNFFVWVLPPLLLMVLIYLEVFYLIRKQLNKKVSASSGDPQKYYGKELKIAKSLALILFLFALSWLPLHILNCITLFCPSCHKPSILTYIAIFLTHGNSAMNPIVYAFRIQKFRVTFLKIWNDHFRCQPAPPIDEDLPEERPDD

Adenosine receptor A2b = biological target: T4, Adenosine receptor A2b (Homo sapiens, UniProt P29275); assay: Displacement of [3H]PSB-603 from human A2B receptor expressed in CHO cell membrane; assay type: cell membranes
T4 sequence (P29275 whole entry): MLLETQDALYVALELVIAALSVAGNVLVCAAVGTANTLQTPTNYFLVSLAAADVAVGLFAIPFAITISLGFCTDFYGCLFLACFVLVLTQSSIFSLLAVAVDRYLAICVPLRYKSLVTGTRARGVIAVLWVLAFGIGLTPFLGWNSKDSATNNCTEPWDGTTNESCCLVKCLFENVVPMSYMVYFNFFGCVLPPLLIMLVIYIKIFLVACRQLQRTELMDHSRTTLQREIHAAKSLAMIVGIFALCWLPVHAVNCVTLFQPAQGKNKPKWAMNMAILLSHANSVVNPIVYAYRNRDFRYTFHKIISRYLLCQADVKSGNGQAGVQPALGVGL

[6] = biological target: T5, Amine oxidase [flavin-containing] B (Homo sapiens, UniProt P27338); assay: Inhibition of recombinant human MAO-B expressed in baculovirus infected BTI insect cells preincubated for 30 mins followed by addition of p-tyramine as substrate measured over 45 mins by Amplex Red MAO assay
T5 sequence (P27338 whole entry): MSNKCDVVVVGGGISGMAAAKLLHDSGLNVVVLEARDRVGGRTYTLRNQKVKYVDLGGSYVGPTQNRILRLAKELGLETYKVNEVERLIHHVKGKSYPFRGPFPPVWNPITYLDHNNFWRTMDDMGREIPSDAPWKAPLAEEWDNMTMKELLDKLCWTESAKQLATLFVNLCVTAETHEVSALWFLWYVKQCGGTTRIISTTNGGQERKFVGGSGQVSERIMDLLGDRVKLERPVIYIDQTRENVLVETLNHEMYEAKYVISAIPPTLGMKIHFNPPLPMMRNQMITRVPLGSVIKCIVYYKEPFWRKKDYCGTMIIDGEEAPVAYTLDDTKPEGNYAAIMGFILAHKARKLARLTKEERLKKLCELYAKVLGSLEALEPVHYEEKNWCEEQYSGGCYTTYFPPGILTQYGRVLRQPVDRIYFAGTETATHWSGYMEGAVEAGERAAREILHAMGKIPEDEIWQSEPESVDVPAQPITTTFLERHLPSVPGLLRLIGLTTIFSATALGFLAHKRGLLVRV

Row | SMILES | Ki (Adenosine receptor A2a [1]) | IC50 [2] | inhibition at 10 µM [3] | IC50 [4] | Ki (Adenosine receptor A2a [5]) | Ki (Adenosine receptor A1) | Ki (Adenosine receptor A2b) | IC50 [6]
1 | Cn1c(=O)c2c(nc3n2CCN(c2cccc(Cl)c2)C3)n(C)c1=O | 557 nM | 251 nM | 4% | > 10000 nM | 8860 nM | ≥ 10000 nM | > 1000 nM | 385 nM
2 | Cn1c(=O)c2c(nc3n2CCN([C@@H]2CCCc4ccccc42)C3)n(C)c1=O | 510 nM | 100 nM | 14% | > 10000 nM | 595 nM | 393 nM | > 300 nM | 210 nM
